Laboratory results from article PMC5641330, “Prediction of a Therapeutic Dose for Buagafuran, a Potent Anxiolytic Agent by Physiologically Based Pharmacokinetic/Pharmacodynamic Modeling Starting from Pharmacokinetics in Rats and Human” (Frontiers in Pharmacology, 2017).

Assays:
male Wistar rats = experiment: Elevated plus-maze (EPM) test in the rat, with sigmoid Emax PK/PD fit; type: in vivo
Description: Anxiolytic activity of buagafuran was evaluated by EPM model. The rat EPM consisted of two open arms (50 cm × 10 cm) and two closed arms (50 cm × 10 cm × 40 cm) extending from the central platform (10 cm × 10 cm), the maze rising from the floor by 50 cm.
Male Wistar rats, weighing between 130 and 160 g, were handled daily for 1 week prior to the study and were fasted for 12 h before experiment. Group I: the treated rats received buagafuran formulation of PVP (2, 4, and 8 mg/kg) via the oral route, while the rats that served as control group received vehicle (PVP). Experiments were carried out 10 min after oral administration of drugs or vehicles. Group II: Rats were evaluated 5, 10, 15, 30, 60, 90, 120, and 180 min after oral treatment with buagafuran (4 mg/kg). During a typical test, place each rat on the center of the maze, facing an open arm, and allowing free exploration of the maze for a 5 min test period. An entry was defined by all four paws enter an arm. The total number of arm entries, and the time spent in each type of arm was recorded. The maze was wiped down with 10% ethanol between tests. All experiments were carried out between 9:00 am and 12:00 am.
The difference between control and treatment group was statistically analyzed by one-way analyses of variance (ANOVA). Differences with probabilities of less than 5% (p < 0.05) were regarded as significant.
The PD Plus module implemented in GastroPlus was used. Based on the parameters (R^2 and Akaike criterion) in PK-PD model simulation, the best-fitting model, Sigmoid Emax model, was employed to fit therapeutic PD response (time spent on the open arms) with the brain concentration profile of buagafuran in rat using the equation 4:
(4) E = E0+ EmaxC^γ/EC50 γ+C^γ.
where C is in ng/mL, E0 is the time spent by the control group in the open arms which is equal to 0.63, Emax is the maximum response, EC50 is the concentration of a compound at which 50% of its maximum response is observed and γ is the Hill coefficient. The set of parameter values for the model was determined by GastroPlus software. GastroPlus simulation was then used to predict the brain concentration profile and PD response profile of buagafuran in human.

CYP3A and CYP2E = system: CYP3A and CYP2E; parameters: method as in Zhang, 1997; Li et al., 2001; Li, 2010; conditions: ref Zhang, 1997, Li et al., 2001, 2010; cited from earlier work
P-gp = system: P-gp; parameters: method as in Li, 2010; conditions: ref Li, 2010; cited from earlier work

With `CCCCC1=CCC[C@@]2(C)CC[C@@H]3C[C@]12OC3(C)C` [buagafuran] the “time within which activity decreased” value (male Wistar rats; rat EPM, oral 4 mg/kg) was ≤ 2 h, the “time of maximal level of activity” value (male Wistar rats; rat EPM, oral 4 mg/kg, p < 0.01 versus vehicle) was 15 min and the onset of action (male Wistar rats; rat EPM, oral 4 mg/kg, p < 0.05 versus vehicle) was ≤ 10 min. The “total time spent in open arms” value (male Wistar rats; rat EPM, oral 2, 4 and 8 mg/kg, dose-dependent, inverted U-shaped) was “significantly prolonged”, the “dose of maximum effect” value (male Wistar rats; rat EPM, oral, p < 0.05 versus vehicle) was 4 mg/kg and the EC50 (male Wistar rats; time spent in open arms vs rat brain concentration, direct sigmoidal Emax model) was 0.0106 µg/mL. For the same molecule, the “major enzymes involved in its metabolism in vitro” value (CYP3A and CYP2E) was “CYP3A and CYP2E” and the “substrate of the transporter P-gp” value (P-gp) was “substrate of the transporter P-gp”.
